{
  "source": "patent US20200087340A1",
  "about": "“LIF/LIFR ANTAGONIST IN ONCOLOGY AND NONMALIGNANT DISEASES” (Evestra, Inc., priority 2018, published 2020)",
  "key": {"[1]": {"system": "T-47D", "test": "NCI-60 screening, Breast Cancer", "type": "cell-based, human"}, "[2]": {"system": "UACC-62", "test": "NCI-60 screening, Melanoma", "type": "cell-based, human"}, "[3]": {"system": "K-562", "test": "NCI-60 screening, Leukemia", "type": "cell-based, human"}, "[4]": {"system": "CAKI-1", "test": "NCI-60 screening, Renal Cancer", "type": "cell-based, human"}, "[5]": {"system": "HL-60(TB)", "test": "NCI-60 screening, Leukemia", "type": "cell-based, human"}, "[6]": {"system": "OVCAR-8", "test": "NCI-60 screening, Ovarian Cancer", "type": "cell-based, human"}, "[7]": {"system": "A498", "test": "NCI-60 screening, Renal Cancer", "type": "cell-based, human"}, "[8]": {"system": "PC-3", "test": "NCI-60 screening, Prostate Cancer", "type": "cell-based, human"}, "[9]": {"system": "MDA-MB-231 (TNBC) Xenograft", "test": "Tumor xenograft study, MDA-MB-231", "type": "in vivo, mice", "protocol": "Uniform suspensions of human breast cancer MDA-MB-231 and human ovarian cancer IGROV1 cells (2×10^6) in 100 μL (0.02 carboxymethyl cellulose in phosphate buffered saline) were injected subcutaneously into the right and left flanks of 4- to 5-week-old female athymic nude mice (Charles River Laboratories). After 10 days, when the tumor […] reaches 100 mm^3, the mice were randomly allocated to 3 groups of each containing 6 animals. […] All drug was suspended in PBS followed by sonication (15 seconds with an intermittent interval of 5 seconds) for 1 minute. Tumors were allowed to reach palpability before drug intervention. Tumor size was measured every 3 days using digital Vernier Calipers and tumor volume was calculated using the ellipsoid formula [D×(d2)]/2, where D is the large diameter of the tumor and d represents the small diameter. On day 31, the mice were euthanized and tumors were harvested for protein and gene expression studies. […] FIG. 6B depicts a graph of tumor volume vs. time for the administration of EC300 at 2.5 mg/kg twice weekly in the MDA-MB-231 (TNBC) Xenograft. […] FIG. 7 depicts a graph of tumor volume vs. time for the administration of EC300 at 5 mg/kg 5 days per week in the IGROV1 (Ovarian) Xenograft. […] STAT3 phosphorylation is reduced in tumors that underwent treatment compared to control which is an indication of LIF downstream target."}, "[10]": {"system": "OVCAR-5", "test": "NCI-60 screening, Ovarian Cancer", "type": "cell-based, human"}, "[11]": {"system": "M14", "test": "NCI-60 screening, Melanoma", "type": "cell-based, human"}, "[12]": {"system": "TK-10", "test": "NCI-60 screening, Renal Cancer", "type": "cell-based, human"}, "[13]": {"system": "MCF-7 cells", "test": "P53 / MDM2 levels in MCF-7 cells", "type": "cell-based, human"}, "[14]": {"system": "Patient derived tumor (melanoma)", "test": "Immunohistochemistry analysis of treated patient derived tumor", "type": "cell-based, human", "conditions": "10 nM and 1 uM for 5 days", "protocol": "Patient derived tumor (melanoma) was treated with the compounds at 10 nM and 1 uM for 5 days in RPMI medium and harvested on day 6 using established protocol and immunohistochemistry was performed for different antibodies including p53, LIF, MDM2, pSTAT3, Ki67."}, "[15]": {"system": "MOLT-4", "test": "NCI-60 screening, Leukemia", "type": "cell-based, human"}, "[16]": {"system": "OVCAR-4", "test": "NCI-60 screening, Ovarian Cancer", "type": "cell-based, human"}, "[17]": {"system": "various cancer cells lines", "test": "Cytotoxicity assays in various cancer cell lines", "type": "cell-based"}, "[18]": {"system": "SW-620", "test": "NCI-60 screening, Colon Cancer", "type": "cell-based, human"}, "[19]": {"system": "HOP-62", "test": "NCI-60 screening, Non-Small Cell Lung Cancer", "type": "cell-based, human"}, "[20]": {"system": "RPMI-8226", "test": "NCI-60 screening, Leukemia", "type": "cell-based, human"}, "[21]": {"system": "786-0", "test": "NCI-60 screening, Renal Cancer", "type": "cell-based, human"}, "[22]": {"system": "HOP-92", "test": "NCI-60 screening, Non-Small Cell Lung Cancer", "type": "cell-based, human"}, "[23]": {"system": "EKVX", "test": "NCI-60 screening, Non-Small Cell Lung Cancer", "type": "cell-based, human"}},
  "data": [
    {"smiles": "C#CC(F)(F)[C@]1(O)CCC2C3CCC4=CC(=O)CCC4=C3C(c3ccc(C4CC4)cc3)C[C@@]21C", "note": "(stereo partly drawn) [EC330, 17α-(1,1-difluoro-2-propyn-1-yl)-17β-hydroxy-11β-[4-p-(cyclopropyl)phenyl]estra-4,9-dien-3-one]", "values": [
      {"measurement": "TGI (log10TGI)", "setting": "[1]", "result": "−5.00"},
      {"measurement": "TGI (log10TGI)", "setting": "[2]", "result": "−5.27"},
      {"measurement": "TGI (log10TGI)", "setting": "[3]", "result": ">−4.00"},
      {"measurement": "TGI (log10TGI)", "setting": "[4]", "result": "−6.41"},
      {"measurement": "TGI (log10TGI)", "setting": "[5]", "result": "<−8.00"},
      {"measurement": "TGI (log10TGI)", "setting": "[6]", "result": "−4.43"},
      {"measurement": "TGI (log10TGI)", "setting": "[7]", "result": "−6.01"},
      {"measurement": "TGI (log10TGI)", "setting": "[8]", "result": "−5.53"},
      {"measurement": "apoptosis in xenograft tumors", "setting": "[9]; MDA-MB-231 breast cancer xenograft tumors", "result": "induced apoptosis dose dependently"},
      {"measurement": "tumor growth", "setting": "[9]; human triple negative breast cancer (TNBC) model", "result": "significantly reduced"},
      {"measurement": "TGI (log10TGI)", "setting": "[10]", "result": "−5.25"},
      {"measurement": "TGI (log10TGI)", "setting": "[11]", "result": "−4.45"},
      {"measurement": "TGI (log10TGI)", "setting": "[12]", "result": "−4.91"},
      {"measurement": "P53 levels / MDM2", "setting": "[13]", "result": "restore P53 levels by inhibiting MDM2"},
      {"measurement": "apoptosis, p53, MDM2, LIF mediated STAT3 phosphorylation (immunohistochemistry)", "setting": "[14]", "result": "induce apoptosis and restore p53 by inhibiting MDM2 and LIF mediated STAT3 phosphorylation"},
      {"measurement": "TGI (log10TGI)", "setting": "[15]", "result": "−5.30"},
      {"measurement": "TGI (log10TGI)", "setting": "[16]", "result": ">−4.00"},
      {"measurement": "cytotoxicity (IC50's) in cytotoxicity assays", "setting": "[17]", "result": "low nanomolar"},
      {"measurement": "TGI (log10TGI)", "setting": "[18]", "result": "−4.79"},
      {"measurement": "TGI (log10TGI)", "setting": "[19]", "result": "−6.79"},
      {"measurement": "TGI (log10TGI)", "setting": "[20]", "result": "−6.24"},
      {"measurement": "TGI (log10TGI)", "setting": "[21]", "result": "<−8.00"},
      {"measurement": "TGI (log10TGI)", "setting": "[22]", "result": "<−8.00"},
      {"measurement": "TGI (log10TGI)", "setting": "[23]", "result": "<−8.00"}
    ]}
  ]
}
